In patent publication US20230405028A1 (priority 2020, published 2023):
Where two headings read alike, the source gives them in different places.

What was measured:
[1] = test system: Human primary small intestinal epithelial cells (HSIEC)
[2] = test system: COX-2; assay: COX-2 in HSIEC cells treated with TNF-α/IFN-γ (western blot, densitometry); type: cell-based, human; settings: single agent, escalating doses
Description: Cell Culture: Human primary small intestinal epithelial cells (HSIEC), purchased from Cell Biologics were cultured in Epithelial Cell Medium/w Kit. HSIEC cells were incubated at 37° C. in a humidified atmosphere of 5% CO2. HSIEC cells were treated with mycoplasma removal reagent BM-Cyclin (Roche) to ensure mycoplasma negative before treatment.
To do so, COX-2, an enzyme which mediates the bioconversion of arachidonic acid to inflammatory prostaglandins (PGs), was measured via densitometry. GAPDH was used as a reference housekeeping marker for relative densitometry measures. […] Ethanol or DMSO was used, as indicated in the figures, as a vehicle for dilution and as a negative control showing the amount of the inflammatory marker present when inflammation was not induced.
Increasing doses of each molecule of interest, or each combination of molecules of interest, were then distributed to the HSIEC cells treated to induce inflammatory response. Inflammatory markers COX-2 and/or IL-6 were assessed at specific timepoints after induction of inflammation for protein content marker measured via western blot. GAPDH was used as a reference housekeeping marker for relative densitometry measures of protein content.

[3] = test system: TRPA1; settings: TRPA1 overexpressing CHO cells and trigeminal neurons; cited from earlier work
[4] = biological target: 5HT2A (Homo sapiens, UniProt P28223); settings: printed with a question mark in the Average Dose column; cited from earlier work
Sequence of 5HT2A (P28223 whole entry): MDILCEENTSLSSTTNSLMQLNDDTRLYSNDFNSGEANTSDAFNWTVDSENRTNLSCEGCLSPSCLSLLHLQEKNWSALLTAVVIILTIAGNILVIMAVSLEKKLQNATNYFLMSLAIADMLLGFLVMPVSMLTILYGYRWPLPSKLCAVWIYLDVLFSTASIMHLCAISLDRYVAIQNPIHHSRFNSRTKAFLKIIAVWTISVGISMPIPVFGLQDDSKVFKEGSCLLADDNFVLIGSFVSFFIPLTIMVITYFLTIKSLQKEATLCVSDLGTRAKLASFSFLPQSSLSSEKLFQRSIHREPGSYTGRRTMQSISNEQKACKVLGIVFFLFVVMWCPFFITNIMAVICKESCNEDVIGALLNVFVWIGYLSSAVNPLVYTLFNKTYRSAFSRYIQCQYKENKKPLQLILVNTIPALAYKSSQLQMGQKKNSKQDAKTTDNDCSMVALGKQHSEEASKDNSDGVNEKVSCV

[5] = test system: iNOS; assay: iNOS in HSIEC cells treated with TNF-α/IFN-γ; type: cell-based, human; settings: 5, 10, 20, 40 μM
[6] = test system: A-172 glioblastoma cells; assay: MTT cell viability assay in A-172 cells; settings: Psilocybin + Eugenol section, 25 μM EUG

## O=C(/C=C/C=C/c1ccc2c(c1)OCO2)N1CCCCC1 [piperine]
[1]
  effect on cell growth / cellular metabolic activity (MTT, words): could only be studied at very low dose
[1]; 5 μM, 24 h
  Cellular Metabolic Activity: 0.077
[1]; 5 μM, 48 h
  Cellular Metabolic Activity: 0.170
[1]; 5 μM, 72 h
  Cellular Metabolic Activity: 0.278
[1]; 5 μM, 96 h
  Cellular Metabolic Activity: 0.517
[1]; 5 μM, time 0
  Cellular Metabolic Activity: 0.035
[1]; 10 μM, 24 h
  Cellular Metabolic Activity: 0.073
[1]; 10 μM, 48 h
  Cellular Metabolic Activity: 0.183
[1]; 10 μM, 72 h
  Cellular Metabolic Activity: 0.271
[1]; 10 μM, 96 h
  Cellular Metabolic Activity: 0.438
[1]; 10 μM, time 0
  Cellular Metabolic Activity: 0.026
[1]; 20 μM, 24 h
  Cellular Metabolic Activity: 0.075
[1]; 20 μM, 48 h
  Cellular Metabolic Activity: 0.166
[1]; 20 μM, 72 h
  Cellular Metabolic Activity: 0.268
[1]; 20 μM, 96 h
  Cellular Metabolic Activity: 0.445
[1]; 20 μM, time 0
  Cellular Metabolic Activity: 0.022
[1]; 40 μM, 24 h
  Cellular Metabolic Activity: 0.069
[1]; 40 μM, 48 h
  Cellular Metabolic Activity: 0.169
[1]; 40 μM, 72 h
  Cellular Metabolic Activity: 0.226
[1]; 40 μM, 96 h
  Cellular Metabolic Activity: 0.423
[1]; 40 μM, time 0
  Cellular Metabolic Activity: 0.025
[1]; 80 μM, 24 h
  Cellular Metabolic Activity: 0.068
[1]; 80 μM, 48 h
  Cellular Metabolic Activity: 0.171
[1]; 80 μM, 72 h
  Cellular Metabolic Activity: 0.224
[1]; 80 μM, 96 h
  Cellular Metabolic Activity: 0.391
[1]; 80 μM, time 0
  Cellular Metabolic Activity: 0.026
[1]; 100 μM, 24 h
  Cellular Metabolic Activity: 0.071
[1]; 100 μM, 48 h
  Cellular Metabolic Activity: 0.175
[1]; 100 μM, 72 h
  Cellular Metabolic Activity: 0.248
[1]; 100 μM, 96 h
  Cellular Metabolic Activity: 0.410
[1]; 100 μM, time 0
  Cellular Metabolic Activity: 0.030
[1]; 200 μM, 24 h
  Cellular Metabolic Activity: 0.071
[1]; 200 μM, 48 h
  Cellular Metabolic Activity: 0.171
[1]; 200 μM, 72 h
  Cellular Metabolic Activity: 0.243
[1]; 200 μM, 96 h
  Cellular Metabolic Activity: 0.426
[1]; 200 μM, time 0
  Cellular Metabolic Activity: 0.027
[1]; 400 μM, 24 h
  Cellular Metabolic Activity: 0.068
[1]; 400 μM, 48 h
  Cellular Metabolic Activity: 0.191
[1]; 400 μM, 72 h
  Cellular Metabolic Activity: 0.187
[1]; 400 μM, 96 h
  Cellular Metabolic Activity: 0.255
[1]; 400 μM, time 0
  Cellular Metabolic Activity: 0.031
[2]
  doses reducing COX-2 to the greatest extent: 2.5 µM

## CCCCCc1cc(O)c2c(c1)OC(C)(C)c1ccc(C)cc1-2 [cannabinol]
[3]
  TRPA1 activation: activate TRPA1

## CCC(CC)NC(=O)[C@@H]1C=C2c3cccc4[nH]cc(c34)C[C@H]2N(C)C1 [LSP, D-lysergic acid 3-pentyl amide]
[4]
  potency of LSD: 75% potency % potency of LSD

## CCN(C(=O)[C@@H]1C=C2c3cccc4[nH]cc(c34)C[C@H]2N(C)C1)C1CC1 [ECPLA, D-N-ethyl-N-cyclopropyllysergamide]
[4]
  potency of LSD: 40% potency % potency of LSD

## CCCCCc1cc(O)c2c(c1)OC(C)(C)[C@@H]1CCC(C)=C[C@@H]21 [THC, delta-9-tetrahydrocannabinol]
[3]
  TRPA1 activation: activate TRPA1

## COc1cc(CNC(=O)CCCC/C=C/C(C)C)ccc1O [capsaicin]
[1]
  effect on cell growth / cellular metabolic activity (MTT, words): All initial doses of capsaicin were found to be inhibitory
[1]; 0.5 μM, 24 h
  Cellular Metabolic Activity: 0.088
[1]; 0.5 μM, 48 h
  Cellular Metabolic Activity: 0.154
[1]; 0.5 μM, 72 h
  Cellular Metabolic Activity: 0.288
[1]; 0.5 μM, 96 h
  Cellular Metabolic Activity: 0.469
[1]; 0.5 μM, time 0
  Cellular Metabolic Activity: 0.068
[1]; 1 μM, 24 h
  Cellular Metabolic Activity: 0.084
[1]; 1 μM, 48 h
  Cellular Metabolic Activity: 0.150
[1]; 1 μM, 72 h
  Cellular Metabolic Activity: 0.326
[1]; 1 μM, 96 h
  Cellular Metabolic Activity: 0.502
[1]; 1 μM, time 0
  Cellular Metabolic Activity: 0.066
[1]; 5 μM, 24 h
  Cellular Metabolic Activity: 0.080
[1]; 5 μM, 48 h
  Cellular Metabolic Activity: 0.148
[1]; 5 μM, 72 h
  Cellular Metabolic Activity: 0.296
[1]; 5 μM, 96 h
  Cellular Metabolic Activity: 0.477
[1]; 5 μM, time 0
  Cellular Metabolic Activity: 0.068
[1]; 10 μM, 24 h
  Cellular Metabolic Activity: 0.075
[1]; 10 μM, 48 h
  Cellular Metabolic Activity: 0.174
[1]; 10 μM, 72 h
  Cellular Metabolic Activity: 0.331
[1]; 10 μM, 96 h
  Cellular Metabolic Activity: 0.708
[1]; 10 μM, time 0
  Cellular Metabolic Activity: 0.040
[1]; 50 μM, 24 h
  Cellular Metabolic Activity: 0.062
[1]; 50 μM, 48 h
  Cellular Metabolic Activity: 0.155
[1]; 50 μM, 72 h
  Cellular Metabolic Activity: 0.292
[1]; 50 μM, 96 h
  Cellular Metabolic Activity: 0.681
[1]; 50 μM, time 0
  Cellular Metabolic Activity: 0.036
[1]; 100 μM, 24 h
  Cellular Metabolic Activity: 0.063
[1]; 100 μM, 48 h
  Cellular Metabolic Activity: 0.150
[1]; 100 μM, 72 h
  Cellular Metabolic Activity: 0.272
[1]; 100 μM, 96 h
  Cellular Metabolic Activity: 0.623
[1]; 100 μM, time 0
  Cellular Metabolic Activity: 0.036
[1]; 200 μM, 24 h
  Cellular Metabolic Activity: 0.044
[1]; 200 μM, 48 h
  Cellular Metabolic Activity: 0.082
[1]; 200 μM, 72 h
  Cellular Metabolic Activity: 0.144
[1]; 200 μM, 96 h
  Cellular Metabolic Activity: 0.231
[1]; 200 μM, time 0
  Cellular Metabolic Activity: 0.040
[1]; 400 μM, 24 h
  Cellular Metabolic Activity: 0.016
[1]; 400 μM, 48 h
  Cellular Metabolic Activity: 0.031
[1]; 400 μM, 72 h
  Cellular Metabolic Activity: 0.016
[1]; 400 μM, 96 h
  Cellular Metabolic Activity: 0.018
[1]; 400 μM, time 0
  Cellular Metabolic Activity: 0.039
[1]; 800 μM, 24 h
  Cellular Metabolic Activity: 0
[1]; 800 μM, 48 h
  Cellular Metabolic Activity: 0
[1]; 800 μM, 72 h
  Cellular Metabolic Activity: 0
[1]; 800 μM, 96 h
  Cellular Metabolic Activity: 0
[1]; 800 μM, time 0
  Cellular Metabolic Activity: 0.041
[1]; human
  doses showing no effect (MTT): < 10 µM

## CC(=O)Oc1cccc2[nH]cc(CCN(C)C)c12 [4-ACO-DMT, 3-[2-(dimethylamino)ethyl]-4-acetoxyindole]
[5]
  dose reducing iNOS to the greatest extent: 10 µM
  doses resulting in reduction of iNOS: all doses
[1]
  effect on cell growth / cellular metabolic activity (MTT, words): increase growth of cells
[2]
  doses reducing COX-2 to the greatest extent: 40 µM

## O=C(c1ccc(F)cc1)C1CCN(CCn2c(=O)[nH]c3ccccc3c2=O)CC1 [ketanserin, reference compound]
[1]; human
  concentration above which inhibitory effect / significant toxicity (MTT): above 20 μM
[2]
  doses resulting in reduction of COX-2: none of the doses

## C=CCc1ccc(O)c(OC)c1 [EUG]
[6]; 24 h
  Cellular Metabolic Activity: 0.202
[6]; 48 h
  Cellular Metabolic Activity: 0.297
[6]; 72 h
  Cellular Metabolic Activity: 0.473
[6]; 96 h
  Cellular Metabolic Activity: 0.319
[6]; time 0
  Cellular Metabolic Activity: 0.134
